Assay [1] concerns Alternaria solani. The class given is cell-based. Conditions: 48 hours. How it is done:
(§1) Mycelia fragments or conidia suspensions of a fungus, prepared either freshly from liquid cultures of the fungus or from cryogenic storage, are directly mixed into nutrient broth. DMSO solutions of the test compound (max. 10 mg/mL) is diluted with 0.025% Tween20 by factor 50 and 10 µL of this solution is pipetted into a microtiter plate (96-well format). The nutrient broth containing the fungal spores/mycelia fragments is then added to give an end concentration of the tested compound. The test plates are incubated in the dark at 24° C. and 96% relative humidity (rh). The inhibition of fungal growth is determined photometrically and visually after 3 - 7 days, depending on the pathosystem, and percent antifungal activity relative to the untreated check is calculated.
Conidia of the fungus from cryogenic storage were directly mixed into nutrient broth (PDB potato dextrose broth). After placing a DMSO solution of the test compositions into a microtiter plate (96-well format) the nutrient broth containing the fungal spores was added.

The subject of assay [2] is Botrytis cinerea. Nature of the assay: microbe, parasite or virus in culture. The class given is cell-based. To be noted: 72 hours. How it is done: as §1, with “The nutrient broth containing the fungal spores/mycelia fragments is then added to give an end concentration of the tested compound.” left out
Conidia of the fungus from cryogenic storage were directly mixed into nutrient broth (PDB potato dextrose broth). After placing a DMSO solution of the test compositions into a microtiter plate (96-well format), the nutrient broth containing the fungal spores was added.

The structures appear in SMILES notation. *1 amine or outer side, *2 acyl side, *3 side chain or, on linkers, in order; H or OH if unused. Where a SMILES comes first, the peptide text is derived from it. [ ]: non-standard residue; d: D form. ξ: configuration not given here. ξNMeVal(3-OH) = CNC(C(=O)O)C(C)(C)O; NMeF = CN[CH](Cc1ccccc1)C(=O)O; X1 = CCC(C)C(O[*:1])C(=O)[*:2]; NMeV = CN[CH](C(=O)O)C(C)C

On to `CCC(C)C1NC(=O)C2CCCN2C(=O)C(Cc2ccccc2)N(C)C(=O)C(Cc2ccccc2)NC(=O)C(C(C)C)N(C)C(=O)C(C(C)CC)OC(=O)C(C(C)(C)O)N(C)C(=O)C(CC(C)C)NC(=O)C(C(C)C)N(C)C1=O` (centres unmarked) [Aureobasidin A] (cyclo([ξNMeVal(3-OH)][X1][NMeV]F[NMeF]PI[NMeV]L); configuration not given here), for which the “(A) inhibition” value came to 11% in assay [1] (Aureobasidin A 0.005 ppm alone, growth inhibition, photometric); 22% in assay [2] (Aureobasidin A 0.01 ppm alone, fludioxonil table); 18% in assay [2] (Aureobasidin A 0.01 ppm alone, growth inhibition, photometric, iprodione table); 60% in assay [2] (Aureobasidin A 0.02 ppm alone, iprodione table).
The inhibition is the share of the control response that was lost under treatment. Turning to `CC(C)NC(=O)N1CC(=O)N(c2cc(Cl)cc(Cl)c2)C1=O` [Iprodione, iprodione], the inhibition at 0.125 ppm in assay [2] (Botrytis cinerea, Iprodione 0.125 ppm alone, read-out: (B) inhibition) was 4%. The inhibition at 0.25 ppm in assay [2] (Botrytis cinerea, Iprodione 0.250 ppm alone, read-out: (B) inhibition) came out at 0%.
In the case of `N#Cc1c[nH]cc1-c1cccc2c1OC(F)(F)O2` [Fludioxonil, fludioxonil], in assay [2] (Botrytis cinerea, Fludioxonil 0.0063 ppm alone, read-out: (B) inhibition), the inhibition at […] turned out to be 0%.
`C=CCOC(Cn1ccnc1)c1ccc(Cl)cc1Cl` (centres unmarked) [Imazalil]: the “(B) inhibition” value in assay [1] (component (B) 0.5 ppm alone) worked out at 35%.

Values taken from US20230240291A1, “FUNGICIDAL COMPOSITIONS” (SYNGENTA CROP PROTECTION AG, priority 2020, published 2023).
